The supplement of paper PMC10307832

Tests used:
Test in all cases: relative viability (nuclei count vs DMSO), 5 days (fraction); higher = more cells survive
RO-3306 = compound: C1=CC2=C(C=CC(=C2)C=C3C(=O)NC(=NCC4=CC=CS4)S3)N=C1 [RO-3306]
Summary of the method: (§1)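 Five library-drug doses, separated by factors of √10, were pinned into 1536-well plates holding lung cancer cell lines after an overnight stay at 37 °C. Cells were fixed, permeabilised and Hoechst-stained in one step after 5 days without medium change, then imaged at 4×. Viability compares treated-well with vehicle-well nuclei, counted in MetaXpress, as a median across plates. Passing plates had control CV below 25% and at least one doubling.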

Foretinib = compound: COc1cc2c(Oc3ccc(NC(=O)C4(C(=O)Nc5ccc(F)cc5)CC4)cc3F)ccnc2cc1OCCCN1CCOCC1 [Foretinib] (anchor plate); details: 0.25 µM
Summary of the method: as §1

[1] = compound: O=S(=O)(c1ccccc1)N(CC(F)(F)F)c1ccc(C(O)(C(F)(F)F)C(F)(F)F)cc1
Summary of the method: as §1

RO-3306 + AZD7762 = compound: C1=CC2=C(C=CC(=C2)C=C3C(=O)NC(=NCC4=CC=CS4)S3)N=C1 [RO-3306] + NC(=O)Nc1cc(-c2cccc(F)c2)sc1C(=O)N[C@H]1CCCNC1 [AZD7762] (partner 0.2 µM)
Summary of the method: (§2)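 Lung cancer cell lines in 1536-well plates were dosed by pin tool the day after seeding, either with one drug alone or with a fixed anchor-drug dose plus five library-drug doses (not always all listed) in √10 steps. After 5 days, cells were fixed and their nuclei stained in one step (final 0.05% Triton X-100, 1% formaldehyde, 1 ug/ml Hoechst), then counted on 4× images. Relative viability is the nuclei count in treated wells divided by that in vehicle wells. Values are medians of duplicate plates.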

[2] = compound: O=S(=O)(c1ccccc1)N(CC(F)(F)F)c1ccc(C(O)(C(F)(F)F)C(F)(F)F)cc1 + Cc1cc(Nc2cc(N3CCN(C)CC3)nc(Sc3ccc(NC(=O)C4CC4)cc3)n2)n[nH]1 [Tozasertib] (partner 0.1 µM)
Summary of the method: as §2

[3] = compound: O=S(=O)(c1ccccc1)N(CC(F)(F)F)c1ccc(C(O)(C(F)(F)F)C(F)(F)F)cc1 + O=C(c1cc(Cc2n[nH]c(=O)c3ccccc23)ccc1F)N1CCN(C(=O)C2CC2)CC1 [Olaparib] (partner 8 µM)
Summary of the method: as §2

Cell Line | relative viability (RO-3306; 0.01 µM) | relative viability (RO-3306; 0.03162 µM) | relative viability (RO-3306; 0.1 µM) | relative viability (RO-3306; 0.3162 µM) | relative viability (RO-3306; 1 µM) | relative viability (Foretinib) | relative viability ([1]; 0.8 µM) | relative viability ([1]; 2.53 µM) | relative viability ([1]; 8 µM) | relative viability (RO-3306 + AZD7762; first compound 0.01 µM) | relative viability (RO-3306 + AZD7762; first compound 0.03162 µM) | relative viability (RO-3306 + AZD7762; first compound 0.1 µM) | relative viability (RO-3306 + AZD7762; first compound 0.3162 µM) | relative viability (RO-3306 + AZD7762; first compound 1 µM) | relative viability ([2]; first compound 0.8 µM) | relative viability ([2]; first compound 2.53 µM) | relative viability ([2]; first compound 8 µM) | relative viability ([3]; first compound 0.8 µM) | relative viability ([3]; first compound 2.53 µM) | relative viability ([3]; first compound 8 µM)
RERF-LC-KJ | 1.07 | 0.86 | 0.983 | 1.04 | 1.01 | 0.865 | 1.02 | 0.87 | 0.84 | 1.02 | 0.671 | 1.06 | 1.11 | 1.24 | 0.5 | 0.445 | 0.523 | 0.853 | 0.893 | 0.88
NCI-H650 | 0.834 | 0.803 | 0.938 | 0.992 | 0.945 | 1.02 | 0.946 | 0.814 | 0.989 | 0.874 | 0.911 | 0.943 | 1.05 | 0.952 | 0.778 | 0.771 | 0.748 | 0.405 | 0.387 | 0.359
NCI-H3122 | 1.05 | 0.99 | 1.01 | 1.05 | 1.04 | 0.93 | 0.99 | 0.977 | 1.08 | 1.16 | 1.06 | 0.973 | 1.06 | 1.1 | 0.419 | 0.424 | 0.489 | 0.678 | 0.599 | 0.654
LCLC-103H | 1.01 | 0.935 | 1.02 | 0.998 | 0.923 | 0.805 | 1.09 | 0.966 | 1.07 | 0.732 | 0.695 | 0.795 | 0.819 | 0.725 | 0.541 | 0.447 | 0.349 | 0.813 | 0.737 | 0.772
NCI-H2347 | 1.19 | 0.882 | 1.05 | 1 | 1 | 0.902 | 1.08 | 1.01 | 1.04 | 1.13 | 0.663 | 0.796 | 0.766 | 0.724 | 0.628 | 0.523 | 0.646 | 0.566 | 0.522 | 0.572
NCI-H322M | 0.86 | 0.908 | 0.854 | 0.954 | 1.01 | 1.01 | 1.08 | 0.966 | 0.866 | 0.538 | 0.697 | 0.625 | 0.597 | 0.582 | 0.562 | 0.575 | 0.467 | 0.81 | 0.734 | 0.857
NCI-H596 | 0.947 | 0.807 | 0.871 | 1.03 | 0.94 | 0.881 | 0.952 | 0.942 | 0.908 | 1.17 | 1.01 | 1.03 | 1.1 | 0.917 | 0.907 | 0.761 | 0.75 | 0.634 | 0.681 | 0.651
NCI-H647 | 0.881 | 0.841 | 0.928 | 1.07 | 0.864 | 1.17 | 1.14 | 0.849 | 0.877 | 0.519 | 0.339 | 0.325 | 0.515 | 0.31 | 0.425 | 0.325 | 0.167 | 0.667 | 0.418 | 0.6
NCI-H1666 | 0.962 | 0.904 | 0.938 | 0.941 | 0.885 | 0.977 | 0.939 | 0.925 | 0.827 | 0.787 | 0.878 | 0.858 | 0.88 | 0.799 | 0.627 | 0.62 | 0.545 | 0.757 | 0.683 | 0.679
LOU-NH91 | 0.931 | 0.914 | 0.934 | 0.918 | 0.852 | 0.94 | 0.984 | 0.968 | 1.05 | 0.76 | 0.721 | 0.746 | 0.721 | 0.667 | 0.735 | 0.701 | 0.678 | 0.966 | 0.935 | 0.913
EMC-BAC-2 | 0.943 | 0.844 | 0.915 | 1.12 | 0.616 | 1.02 | 0.996 | 1.01 | 0.966 | 1.1 | 1.04 | 1.14 | 1.14 | 1 | 0.293 | 0.284 | 0.28 | 0.471 | 0.47 | 0.483
NCI-H2085 | 0.985 | 0.936 | 0.98 | 1.05 | 0.995 | 1.01 | 0.967 | 0.908 | 0.929 | 1.04 | 0.95 | 0.93 | 0.921 | 1.07 | 0.809 | 0.727 | 0.688 | 0.745 | 0.686 | 0.742
HCC-78 | 1.09 | 0.878 | 0.981 | 1.02 | 0.924 | 0.587 | 0.892 | 0.786 | 0.851 | 0.536 | 0.498 | 0.595 | 0.682 | 0.513 | 0.691 | 0.375 | 0.433 | 0.908 | 0.816 | 0.765
A-427 | 1.06 | 0.94 | 1 | 1.02 | 0.574 | 1.08 | 1.08 | 0.929 | 1.21 | 0.821 | 0.766 | 0.685 | 0.744 | 0.832 | 0.186 | 0.216 | 0.298 | 0.807 | 0.673 | 0.778
NCI-H441 | 1.09 | 0.795 | 1.11 | 1.13 | 1.04 | 0.994 | 1.12 | 0.896 | 0.941 | 1.02 | 0.782 | 1.21 | 0.948 | 1.03 | 0.58 | 0.588 | 0.697 | 0.657 | 0.469 | 0.654
NCI-H1993 | 0.808 | 0.719 | 0.893 | 0.849 | 0.941 | 0.782 | 0.987 | 0.831 | 0.711 | 0.697 | 0.756 | 0.772 | 0.77 | 0.684 | 0.596 | 0.535 | 0.528 | 1.1 | 0.843 | 0.954
NCI-H1975 | 1.09 | 0.804 | 0.869 | 0.997 | 0.91 | 0.958 | 1.09 | 0.943 | 0.95 | 0.762 | 0.671 | 0.712 | 0.641 | 0.653 | 0.781 | 0.622 | 0.659 | 1.02 | 0.762 | 0.875
